Data: US12202835B2, “Substituted aromatic ring-linked dioxinoquinazolines and dioxinoquinolines as kinase inhibitors” (BEIJING SCITECH-MQ PHARMACEUTICALS LIMITED, priority 2018, dated 2025)

How the values were obtained:
c-MET kinase = c-MET kinase (Homo sapiens (Human), UniProt P08581); experiment: Assay of small molecular compounds for inhibiting the activity of c-MET kinase (LANCE TR-FRET); type: biochemical; conditions: read-out: CMET IC50
Procedure, shortened: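 LANCE TR-FRET assay with c-MET at 1 nM final after a 5 min room-temperature preincubation with compound (11-point, 3-fold series, 2500–0.042 nM final, 4% DMSO). ULight-JAK-1 (Tyr1023) peptide (100 nM final) and ATP (10 μM final) reacted 60 min in the dark. Inhibition was taken relative to controls, then IC50 fitted.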

VEGFR-2 kinase = VEGFR-2 kinase (Homo sapiens (Human), UniProt P35968); experiment: Assay of small molecular compounds for inhibiting the activity of VEGFR-2 kinase (LANCE TR-FRET); type: biochemical; conditions: read-out: VEGFR2 IC50
Procedure, shortened: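 LANCE TR-FRET with human VEGFR-2 (2× stock 0.5 nM) preincubated 30 min with compound (final 2500 to 0.042 nM, 11-point 3-fold), then ULight-JAK-1 (Tyr1023) peptide/ATP added (4× stocks 200 nM/40 μM). Reaction 60 min room temperature, 4% DMSO; IC50 from inhibition-rate curve.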

Chain of VEGFR-2 kinase (P35968 20-1356): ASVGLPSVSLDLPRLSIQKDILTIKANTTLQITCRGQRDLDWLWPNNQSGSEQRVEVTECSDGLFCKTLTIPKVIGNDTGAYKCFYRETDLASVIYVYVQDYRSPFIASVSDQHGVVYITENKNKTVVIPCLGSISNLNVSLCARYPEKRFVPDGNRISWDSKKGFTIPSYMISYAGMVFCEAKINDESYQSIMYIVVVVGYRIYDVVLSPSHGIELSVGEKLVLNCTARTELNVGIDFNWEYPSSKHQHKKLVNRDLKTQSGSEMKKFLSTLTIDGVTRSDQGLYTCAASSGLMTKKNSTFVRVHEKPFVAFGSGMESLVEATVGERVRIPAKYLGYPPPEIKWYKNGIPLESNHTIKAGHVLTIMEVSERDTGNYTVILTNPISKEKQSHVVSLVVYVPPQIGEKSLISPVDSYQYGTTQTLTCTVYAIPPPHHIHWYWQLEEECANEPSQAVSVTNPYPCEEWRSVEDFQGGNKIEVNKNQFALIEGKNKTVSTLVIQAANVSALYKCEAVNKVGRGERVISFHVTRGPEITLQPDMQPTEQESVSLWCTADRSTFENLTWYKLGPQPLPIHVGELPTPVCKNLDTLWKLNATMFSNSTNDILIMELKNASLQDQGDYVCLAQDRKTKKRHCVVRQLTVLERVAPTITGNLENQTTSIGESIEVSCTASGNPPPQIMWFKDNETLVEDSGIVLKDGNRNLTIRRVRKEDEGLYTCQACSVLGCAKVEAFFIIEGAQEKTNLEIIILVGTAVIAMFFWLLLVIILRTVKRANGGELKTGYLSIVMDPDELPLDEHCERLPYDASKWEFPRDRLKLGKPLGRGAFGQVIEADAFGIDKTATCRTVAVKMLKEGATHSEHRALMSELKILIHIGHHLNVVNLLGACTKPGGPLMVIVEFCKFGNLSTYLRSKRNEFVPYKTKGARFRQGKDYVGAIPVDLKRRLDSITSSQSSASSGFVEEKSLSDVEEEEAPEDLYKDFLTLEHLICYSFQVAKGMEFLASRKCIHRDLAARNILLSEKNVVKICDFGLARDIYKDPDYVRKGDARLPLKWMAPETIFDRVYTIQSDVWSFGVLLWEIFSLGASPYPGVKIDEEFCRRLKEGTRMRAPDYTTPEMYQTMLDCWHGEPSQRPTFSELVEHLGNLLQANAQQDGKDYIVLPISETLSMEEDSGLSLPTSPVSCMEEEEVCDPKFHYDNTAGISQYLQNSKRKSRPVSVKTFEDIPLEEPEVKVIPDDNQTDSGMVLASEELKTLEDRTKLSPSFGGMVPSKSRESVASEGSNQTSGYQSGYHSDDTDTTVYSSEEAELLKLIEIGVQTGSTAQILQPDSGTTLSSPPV
Chain of c-MET kinase (P08581 25-1390): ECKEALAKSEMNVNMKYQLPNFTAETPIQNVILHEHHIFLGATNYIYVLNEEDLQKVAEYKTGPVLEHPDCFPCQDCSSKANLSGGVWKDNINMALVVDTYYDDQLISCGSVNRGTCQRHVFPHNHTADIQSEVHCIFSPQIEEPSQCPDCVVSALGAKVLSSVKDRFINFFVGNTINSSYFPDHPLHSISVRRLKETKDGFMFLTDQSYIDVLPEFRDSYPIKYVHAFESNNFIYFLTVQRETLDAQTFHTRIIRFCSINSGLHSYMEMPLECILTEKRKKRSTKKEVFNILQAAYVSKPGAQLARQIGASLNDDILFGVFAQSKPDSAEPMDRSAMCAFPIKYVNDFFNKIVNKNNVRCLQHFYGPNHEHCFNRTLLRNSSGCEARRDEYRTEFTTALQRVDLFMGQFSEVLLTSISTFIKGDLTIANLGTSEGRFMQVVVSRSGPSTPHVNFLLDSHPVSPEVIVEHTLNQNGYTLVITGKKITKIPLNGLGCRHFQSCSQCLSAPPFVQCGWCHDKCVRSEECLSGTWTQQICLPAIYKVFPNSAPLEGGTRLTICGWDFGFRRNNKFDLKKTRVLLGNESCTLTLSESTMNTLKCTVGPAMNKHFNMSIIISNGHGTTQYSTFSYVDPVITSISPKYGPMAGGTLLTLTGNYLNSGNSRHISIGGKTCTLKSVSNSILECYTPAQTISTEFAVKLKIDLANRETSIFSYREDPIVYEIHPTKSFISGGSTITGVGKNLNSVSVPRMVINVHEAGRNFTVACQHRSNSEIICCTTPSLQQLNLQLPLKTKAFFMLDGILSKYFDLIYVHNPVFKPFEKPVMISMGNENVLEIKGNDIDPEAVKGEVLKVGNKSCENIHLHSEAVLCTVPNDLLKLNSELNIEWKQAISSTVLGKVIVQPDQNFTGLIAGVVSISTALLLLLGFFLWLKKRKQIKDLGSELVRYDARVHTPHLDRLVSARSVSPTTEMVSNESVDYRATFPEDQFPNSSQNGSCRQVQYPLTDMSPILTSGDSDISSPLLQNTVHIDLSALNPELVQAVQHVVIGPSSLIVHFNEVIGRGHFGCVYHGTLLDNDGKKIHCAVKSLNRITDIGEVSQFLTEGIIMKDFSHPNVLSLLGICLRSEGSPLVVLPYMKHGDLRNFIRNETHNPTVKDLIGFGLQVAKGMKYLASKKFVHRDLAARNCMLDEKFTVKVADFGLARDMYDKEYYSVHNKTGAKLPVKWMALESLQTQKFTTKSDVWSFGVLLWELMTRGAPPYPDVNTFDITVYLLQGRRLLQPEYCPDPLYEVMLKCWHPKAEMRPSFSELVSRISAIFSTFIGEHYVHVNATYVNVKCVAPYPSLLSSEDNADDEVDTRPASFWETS

| IC50 (c-MET kinase) [nM] | IC50 (VEGFR-2 kinase) [nM] | Compound |
| --- | --- | --- |
| ≤ 50 | 500 to 5000 | CCOc1cn(-c2ccc(F)cc2C)nc1C(=O)Nc1ccc(Oc2ncnc3cc(OCCCN4CCOCC4)c4c(c23)OCCO4)c(F)c1 [Example 12, 1-(4-fluoro-2-methylphenyl)-N-(3-fluoro-4-((5-(3-morpholinopropoxy)-2,3-dihydro-[1,4]dioxino[2,3-f]quinazolin-10-yl)oxy)phenyl)-4-ethoxy-1H-pyrazole-3-carboxamide] |
| ≤ 50 | 50 to 500 | CCOc1ccn(-c2ccc(F)cc2)c(=O)c1C(=O)Nc1ccc(Oc2ccnc3cc(OC4CCOCC4)c4c(c23)OCCO4)c(F)c1 [Example 66, N-(4-((5-((tetrahydropyran-4-yl)oxy)-2,3-dihydro-[1,4]dioxino[2,3-f]quinolin-10-yl)oxy)-3-fluorophenyl)-4-ethoxy-1-(4-fluorophenyl)-2-oxo-1,2-dihydropyridine-3-carboxamide] |
| ≤ 50 | 50 to 500 | Cn1cc(C(=O)Nc2ccc(Oc3ccnc4cc(OC5CCOCC5)c5c(c34)OCCO5)c(F)c2)c(=O)n(-c2ccc(F)cc2)c1=O [Example 91, N-(3-fluoro-4-((5-((tetrahydropyran-4-yl)oxy)-2,3-dihydro-[1,4]dioxino[2,3-f]quinolin-10-yl)oxy)phenyl)-3-(4-fluorophenyl)-1-methyl-2,4-dioxo-1,2,3,4-tetrahydropyrimidine-5-carboxamide] |
